This passage reports IC50, inhibition and Ratio IC50 results from ChEMBL document CHEMBL1152153, “Synthesis and activity of novel 1- or 3-(3-amino-1-phenyl propyl)-1,3-dihydro-2H-benzimidazol-2-ones as selective norepinephrine reuptake inhibitors” (Bioorg Med Chem Lett, 2008).

Experiment [1] addresses T1, Sodium-dependent noradrenaline transporter (Homo sapiens, UniProt P23975).
Experiment [2] deals with T2, Sodium-dependent serotonin transporter (Homo sapiens, UniProt P31645). The experiment can be described thus: Inhibition of serotonin uptake at human SERT expressed in JAR cells at 1 uM. It counts as cell-based.
Target sequence in this assay (P31645 whole entry, looked up): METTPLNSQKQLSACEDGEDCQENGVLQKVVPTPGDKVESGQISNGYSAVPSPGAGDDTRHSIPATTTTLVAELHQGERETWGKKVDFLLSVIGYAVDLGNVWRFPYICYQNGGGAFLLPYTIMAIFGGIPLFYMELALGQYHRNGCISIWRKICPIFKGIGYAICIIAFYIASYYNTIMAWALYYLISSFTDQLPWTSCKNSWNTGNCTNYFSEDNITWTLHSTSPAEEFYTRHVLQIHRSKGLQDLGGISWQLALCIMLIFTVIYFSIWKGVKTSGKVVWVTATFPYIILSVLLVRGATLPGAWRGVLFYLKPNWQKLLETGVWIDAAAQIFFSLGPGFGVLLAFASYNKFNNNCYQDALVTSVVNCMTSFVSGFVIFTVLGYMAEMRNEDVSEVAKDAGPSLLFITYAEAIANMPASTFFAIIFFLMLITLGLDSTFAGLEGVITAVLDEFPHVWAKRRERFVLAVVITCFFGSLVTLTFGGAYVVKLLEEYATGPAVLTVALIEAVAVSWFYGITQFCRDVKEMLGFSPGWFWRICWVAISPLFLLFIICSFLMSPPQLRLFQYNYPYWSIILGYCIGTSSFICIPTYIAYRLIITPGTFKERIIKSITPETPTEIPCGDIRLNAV
Experiment [3] concerns the target Sodium-dependent dopamine transporter (Homo sapiens) (UniProt Q01959). The experiment can be described thus: Displacement of [3H]WIN-35428 from human recombinant DAT expressed in CHO cells at 10 uM. Format: cell-based.
The target of experiment [4] is T2, Sodium-dependent serotonin transporter. It counts as cell-based, JAR.
Target sequence in this assay (P31645 whole entry): as the sequence (P31645 whole entry, looked up) above
The species entered for a further experiment is Homo sapiens. Kind of experiment: Ratio of IC50 for human SERT to IC50 for human NET.
Experiment [5] concerns the target T1, Sodium-dependent noradrenaline transporter. The experiment can be described thus: Inhibition of norepinephrine uptake at human NET expressed in MDCK-Net6 cells at 1 uM. It counts as cell-based.
The target in experiment [6] is T2, Sodium-dependent serotonin transporter. The experiment can be described thus: Inhibition of serotonin uptake at human SERT expressed in JAR cells at 10 uM. Format: cell-based.
Target sequence in this assay (P31645 whole entry, looked up): as above

Chain of Sodium-dependent dopamine transporter (Homo sapiens) (Q01959 whole entry): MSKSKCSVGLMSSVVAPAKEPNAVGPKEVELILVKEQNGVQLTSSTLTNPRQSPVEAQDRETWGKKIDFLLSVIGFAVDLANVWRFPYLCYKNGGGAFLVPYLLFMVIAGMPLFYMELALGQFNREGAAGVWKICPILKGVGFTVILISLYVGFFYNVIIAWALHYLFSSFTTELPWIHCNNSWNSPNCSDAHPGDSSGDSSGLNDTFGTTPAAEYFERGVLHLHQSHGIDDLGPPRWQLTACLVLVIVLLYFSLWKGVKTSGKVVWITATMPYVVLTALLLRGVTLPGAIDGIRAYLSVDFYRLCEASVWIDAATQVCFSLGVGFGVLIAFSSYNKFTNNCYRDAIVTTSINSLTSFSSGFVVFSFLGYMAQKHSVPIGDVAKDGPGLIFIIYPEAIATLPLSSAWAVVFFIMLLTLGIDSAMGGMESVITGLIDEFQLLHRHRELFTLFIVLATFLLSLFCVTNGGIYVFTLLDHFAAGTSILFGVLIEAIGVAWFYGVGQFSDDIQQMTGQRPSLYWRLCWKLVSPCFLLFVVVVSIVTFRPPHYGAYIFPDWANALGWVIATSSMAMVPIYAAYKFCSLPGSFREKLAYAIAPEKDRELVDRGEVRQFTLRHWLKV
T1 sequence (P23975 whole entry): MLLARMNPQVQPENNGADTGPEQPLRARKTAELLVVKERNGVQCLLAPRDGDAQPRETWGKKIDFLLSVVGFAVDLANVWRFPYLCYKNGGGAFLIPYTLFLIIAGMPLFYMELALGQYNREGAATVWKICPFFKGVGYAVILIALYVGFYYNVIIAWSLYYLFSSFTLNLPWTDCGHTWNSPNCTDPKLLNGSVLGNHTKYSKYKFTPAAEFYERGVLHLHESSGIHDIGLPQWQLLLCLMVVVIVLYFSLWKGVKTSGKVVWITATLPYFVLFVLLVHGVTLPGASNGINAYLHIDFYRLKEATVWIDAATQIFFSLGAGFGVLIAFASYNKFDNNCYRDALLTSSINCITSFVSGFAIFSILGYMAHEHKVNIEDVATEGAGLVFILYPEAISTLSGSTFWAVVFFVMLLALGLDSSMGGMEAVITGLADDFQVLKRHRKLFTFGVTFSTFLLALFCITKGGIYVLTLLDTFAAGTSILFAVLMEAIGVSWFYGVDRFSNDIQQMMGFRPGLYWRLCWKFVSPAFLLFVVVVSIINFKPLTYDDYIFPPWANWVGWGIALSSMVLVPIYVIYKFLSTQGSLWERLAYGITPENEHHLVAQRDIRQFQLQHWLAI

On to `CNCC[C@H](c1ccccc1)n1c(=O)n(C2CCCCC2)c2ccccc21`, for which the IC50 (in general, the concentration that inhibits the measured activity by half) in experiment [1] came to 311 nM. In addition, the inhibition – broadly, the drop in the measured response relative to a control, in per cent – in experiment [2] is 20%; in experiment [3], 24%.
In the case of `CNCC[C@H](c1ccccc1)n1c(=O)n(C2CC2)c2ccccc21`, the half-maximal inhibitory concentration (IC50) was 166 nM in experiment [1] and 4570 nM in experiment [4]. In addition, in the experiment listed under Homo sapiens, the Ratio IC50 was found to be 28. Besides, the inhibition in experiment [3] was 7%.
As for `CNCCC(c1ccccc1)n1ccc2ccccc21` (centres undefined), the Ratio IC50 in the experiment filed under Homo sapiens was 7.
For the compound `CNCC[C@@H](c1ccccc1)n1c(=O)n(C(C)C)c2cccc(F)c21`, the IC50 in experiment [1] came to 1050 nM; in experiment [4] it was 1410 nM. Besides, the inhibition in experiment [3] came to 31%.
`CNCC[C@H](c1ccccc1)n1c(=O)sc2ccccc21`: the IC50 was found to be 121 nM in experiment [1] and 1910 nM in experiment [4]. Further, the Ratio IC50 in the experiment listed under Homo sapiens worked out at 16. For the same compound, in experiment [3], the inhibition was determined as 36%.
On to `CNCC[C@H](c1ccccc1)n1c(=O)n(-c2ccccc2F)c2cccc(F)c21`, for which the IC50 in experiment [1] was found to be 6 nM; in experiment [4] it was 483 nM. For the same compound, the Ratio IC50 in the experiment listed under Homo sapiens is 80.
On to `CCCn1c(=O)n([C@@H](CCNC)c2ccccc2)c2ccccc21`, for which the IC50 in experiment [1] is 627 nM; in experiment [4], 166 nM. Moreover, in experiment [3], the inhibition was determined as 5%.
`CCn1c(=O)n([C@H](CCN)c2ccccc2)c2ccccc21` had an inhibition in experiment [5] of 51%.
In turn, `CNCC[C@H](c1ccccc1)n1c(=O)n(C2CCCC2)c2ccccc21` had an IC50 in experiment [1] of 201 nM. The inhibition in experiment [2] was found to be 16%; in experiment [3], 22%.
As for `CNCC[C@H](c1ccccc1)n1c(=O)n(C(C)C)c2ccccc21`, the concentration for half-maximal inhibition (IC50) in experiment [1] is 22 nM. Further, the inhibition in experiment [6] came out at 53%; in experiment [2] it was 2%; in experiment [3], 11%. Moreover, the Ratio IC50 in the experiment listed under Homo sapiens amounted to 450.
For `CNCC[C@H](c1ccccc1)n1c(=O)n(C)c2ccccc21`, it took 463 nM to reach half-maximal inhibition in experiment [1] (IC50). Further, the figures for the inhibition in experiment [2] and in experiment [3] were 10% and 12%, respectively.
Turning to `CCNCC[C@H](c1ccccc1)n1c(=O)n(CC)c2ccccc21`, the inhibition in experiment [5] came to 27%.
For `CNCC[C@@H](c1ccccc1)n1c(=O)n(C2CC2)c2ccccc21`, the inhibition in experiment [5] was found to be 25%.
The same measure, in the same setting: then `CC(C)n1c(=O)n([C@H](CCN(C)C)c2ccccc2)c2c(F)cccc21`, with 27%.
With `CCn1c(=O)n([C@H](CCNC)c2cccc(F)c2)c2c(F)cccc21`, the midpoint of inhibition in experiment [1], the IC50, lay at 19 nM. For the same compound, the inhibition in experiment [2] was 28%; in experiment [3] it was 14%.
Consider `CCCn1c(=O)n([C@H](CCNC)c2ccccc2)c2ccccc21`, for which the IC50 in experiment [1] stood at 32 nM; in experiment [4] it was 3100 nM. Besides, the Ratio IC50 in the experiment filed under Homo sapiens is 97. For the same compound, the inhibition in experiment [3] turned out to be 3%.
In the same order, the values of `CCn1c(=O)n([C@H](CCNC)c2ccccc2)c2ccccc21` are 44 nM, 4310 nM, 98 and 4%.
`CNCC[C@@H](c1ccccc1)n1c(=O)n(-c2ccccc2)c2ccccc21`: the IC50 in experiment [1] was 215 nM; in experiment [4], 273 nM. In addition, the inhibition in experiment [3] came to 23%.
Regarding `CNCC[C@H](c1ccccc1)n1c(=O)n(-c2ccccc2)c2ccccc21`, the IC50 in experiment [1] was determined as 9 nM; in experiment [4] it was 3000 nM. Moreover, in the experiment listed under Homo sapiens, the Ratio IC50 worked out at 333. Moreover, the inhibition in experiment [3] is 33%.
Compound `CNCC[C@@H](c1ccccc1)n1c(=O)n(C(C)C)c2ccccc21` showed an inhibition in experiment [5] of 21%.
Turning to `CNCC[C@H](c1ccccc1)n1c(=O)n(C(C)C)c2cccc(F)c21`, the values for the IC50 in experiment [1] and in experiment [4] were 30 nM and 1210 nM, respectively. The Ratio IC50 in the experiment listed under Homo sapiens worked out at 40. The inhibition in experiment [3] is 5%.
